Consider 3 compounds from US20260055126A1, “SMALL MOLECULE COMPOUNDS WITH PHOSPHORYLATED ARYL STRUCTURES AND USE THEREOF” (HANGZHOU PHECDAMED CO., LTD., priority 2022, published 2026).

Like-named read-outs stand apart in the source and are kept apart here.

Data set [1] addresses recombinant TEAD3 protein central pocket (Homo sapiens (Human), UniProt Q99594). The experiment in a line: Competitive thiol binding assay (CPM assay), TEAD3. The conditions noted are these: 150 nM recombinant TEAD protein, 150 nM CPM. The protocol:
(§1) Diluting the tested compound in gradient to 5 uL with buffer (25 mM HEPES, 150 mM NaCl, pH6.5), then adding 5 μL of the newly prepared 0.45 uM recombinant TEAD protein solution, and incubating at room temperature for 10 minutes. […] After shaking the plate at room temperature for 1 hour, measuring the fluorescence intensity (Ex/Em: 380/470 nm).

A short description of data set [2]: Mouse plasma pharmacokinetic test. The format is in vivo, CD-1 mice. The following applies: CD-1, mouse, plasma, VT103 in mice. The text has this: In this example, different compounds are used to perform a mouse pharmacokinetic experiment, and the specific steps are as follows: Animal information: CD-1 mice, male, about 20 g, purchase from Beijing Weitonglihua Experimental Animal Technology Co., Ltd.
Animal dietary status: Animals are not fasted before administration and allowed to drink water freely.
Compound preparation method: for intragastric administration (IG)(G1 group), preparing with 0.5% CMC-Na, and for intravenous injection(IV) (G2 group), preparing 5% DMSO+30% PEG400+65% water. […]
Sampling time points of G1 group: 8 points in total, namely 10 min, 30 min, 1 h, 2 h, 4 h, 6 h, 8 h and 24 h after administration, among them, animals G1M01-G1M03 are sampled at 3 time points, namely 10 min, 1 h and 6 h; animals G1M04-G1M06 are sampled at 3 time points, namely 30 min, 2 h and 8 h; animals G1M07-G1M09 are sampled at 2 time points, namely 4 h and 24 h.
Sampling time points of G2 group: 9 points in total, namely 5 min, 10 min, 30 min, 1 h, 2 h, 4 h, 6 h, 8 h, 24 h after administration. It is recommended that animals G2M01-G2M03 are sampled at 3 time points, namely 5 min, 1 h, and 6 h; animals G2M04-G2M06 are sampled at 3 time points, namely 10 min, 2 h, and 8 h; animals G2M07-G2M09 are sampled at 3 time points, namely 30 min, 4 h, and 24 h.
Sample collection: On the day of the experiment, collecting approximately 0.1 mL of whole blood samples at each preset time point and placing in EDTA-K2 anticoagulant tubes.
Sample processing: Within 30 minutes after whole blood sample collection, centrifuging at 4° C., 12,000 rpm for 5 minutes to separate plasma, collecting the upper plasma sample into a sample tube, and freezing the plasma sample in a −10˜−30° C. refrigerator within 30 minutes and transferring to a −60˜−90° C. refrigerator within 24 hours.
Sample testing and data processing: LC/MS/MS testing, WinNonlin for fitting and pharmacokinetic parameter calculation.

Data set [3] addresses recombinant TEAD1 protein central pocket (Homo sapiens (Human), UniProt P28347). The experiment in a line: Competitive thiol binding assay (CPM assay), TEAD1. The conditions noted are these: 150 nM recombinant TEAD protein, 150 nM CPM. As for the experimental part:
as §1

In data set [4] the target is recombinant TEAD4 protein central pocket (Homo sapiens (Human), UniProt Q15561). Briefly: Competitive thiol binding assay (CPM assay), TEAD4. The conditions noted are these: 150 nM recombinant TEAD protein, 150 nM CPM. As for the experimental part:
as §1

Data set [5] concerns the target recombinant TEAD2 protein central pocket (Homo sapiens (Human), UniProt Q15562). Briefly: Competitive thiol binding assay (CPM assay), TEAD2. The following applies: 150 nM recombinant TEAD protein, 150 nM CPM. The protocol: as §1
A further data set concerns TEAD family proteins. Briefly: Thermal shift assay, summary over all TEAD subtypes. The format is binding. The following applies: summary of Table 1. As for the experimental part:
The ability of the compounds to increase the melting point of purified recombinant TEAD1/2/3/4 proteins is tested using a thermal shift assay. The strength of the compound's binding to the protein and the selectivity of the compound's binding to the four TEAD subtypes are evaluated by calculating the melting point shift ΔTm−° C. […] Based on the Δ Tm value, the ability of the compound to bind to the TEAD protein is divided into four levels: ++++, +++, ++, +.
Test method of protein melting point curve: 10 μL of the protein melting point curve experimental system (10 μM TEAD protein, 50 μM test compound, SYPRO® orange (55692, sigma)) is prepared in a 384-well fluorescence quantitative PCR plate according to the following system, and reacted at 4° C. in the dark for 20 minutes. On-machine reaction: ABI QuantStudio Dx fluorescence quantitative PCR instrument; program: from 25° C. to 80° C., increasing the temperature at a rate of 0.05° C./s, and reading the fluorescence channel signal of the corresponding wavelength of SYPRO® orange every second.

The target of data set [6] is recombinant TEAD4 protein (217-434, Uniprot ID: Q15561) (Homo sapiens (Human), UniProt Q15561). The experiment in a line: Thermal shift assay (protein melting point curve), TEAD4. The format is binding. The conditions noted are these: 10 μM TEAD protein, 50 μM test compound.
recombinant TEAD4 protein (217-434, Uniprot ID: Q15561), sequence (Q15561 217-434): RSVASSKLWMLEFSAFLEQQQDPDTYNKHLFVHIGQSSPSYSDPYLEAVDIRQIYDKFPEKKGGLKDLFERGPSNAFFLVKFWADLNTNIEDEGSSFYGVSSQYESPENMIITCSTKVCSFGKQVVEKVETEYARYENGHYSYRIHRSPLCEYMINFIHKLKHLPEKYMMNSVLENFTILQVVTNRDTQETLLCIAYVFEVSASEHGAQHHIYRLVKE
Data set [7] has as its target recombinant TEAD3 protein (218-435, Uniprot ID: Q99594) (Homo sapiens (Human), UniProt Q99594). Briefly: Thermal shift assay (protein melting point curve), TEAD3. The format is binding. The following applies: 10 μM TEAD protein, 50 μM test compound.
Data set [8] concerns the target recombinant TEAD2 protein (218-447, Uniprot ID: Q15562) (Homo sapiens (Human), UniProt Q15562). Briefly: Thermal shift assay (protein melting point curve), TEAD2. The format is binding. The conditions noted are these: 10 μM TEAD protein, 50 μM test compound.
The test system of data set [9] is recombinant TEAD1 protein (194-411, Uniprot ID: P28347). The experiment in a line: Thermal shift assay (protein melting point curve), TEAD1. The format is binding. The arrangement: key to the marks not given beside the values. The following applies: 10 μM TEAD protein, 50 μM test compound.

recombinant TEAD2 protein central pocket, sequence (Q15562 whole entry): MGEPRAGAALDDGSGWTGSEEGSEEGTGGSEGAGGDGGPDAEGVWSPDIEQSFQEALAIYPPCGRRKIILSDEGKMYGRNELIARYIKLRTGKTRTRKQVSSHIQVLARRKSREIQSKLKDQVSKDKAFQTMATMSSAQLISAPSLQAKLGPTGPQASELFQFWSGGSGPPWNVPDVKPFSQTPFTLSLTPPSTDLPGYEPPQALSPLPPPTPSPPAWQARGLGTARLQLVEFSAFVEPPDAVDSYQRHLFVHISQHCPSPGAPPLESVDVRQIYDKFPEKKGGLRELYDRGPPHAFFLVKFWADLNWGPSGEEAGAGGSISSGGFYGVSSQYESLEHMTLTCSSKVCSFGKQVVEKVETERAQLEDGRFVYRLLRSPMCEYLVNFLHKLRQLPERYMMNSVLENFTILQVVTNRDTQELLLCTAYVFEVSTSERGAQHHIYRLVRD
recombinant TEAD4 protein central pocket, sequence (Q15561 whole entry): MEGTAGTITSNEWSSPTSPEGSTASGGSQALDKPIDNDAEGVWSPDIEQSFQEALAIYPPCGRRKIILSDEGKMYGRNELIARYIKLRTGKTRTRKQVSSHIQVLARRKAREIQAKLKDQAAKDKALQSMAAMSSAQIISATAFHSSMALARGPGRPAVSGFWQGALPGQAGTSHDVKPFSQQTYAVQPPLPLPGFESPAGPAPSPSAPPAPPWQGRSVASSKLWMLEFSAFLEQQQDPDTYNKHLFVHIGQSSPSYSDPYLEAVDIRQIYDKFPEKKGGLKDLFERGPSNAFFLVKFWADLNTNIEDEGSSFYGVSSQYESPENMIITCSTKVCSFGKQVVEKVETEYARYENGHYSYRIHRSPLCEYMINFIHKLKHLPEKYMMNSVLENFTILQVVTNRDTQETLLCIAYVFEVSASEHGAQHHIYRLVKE
recombinant TEAD1 protein central pocket, sequence (P28347 whole entry): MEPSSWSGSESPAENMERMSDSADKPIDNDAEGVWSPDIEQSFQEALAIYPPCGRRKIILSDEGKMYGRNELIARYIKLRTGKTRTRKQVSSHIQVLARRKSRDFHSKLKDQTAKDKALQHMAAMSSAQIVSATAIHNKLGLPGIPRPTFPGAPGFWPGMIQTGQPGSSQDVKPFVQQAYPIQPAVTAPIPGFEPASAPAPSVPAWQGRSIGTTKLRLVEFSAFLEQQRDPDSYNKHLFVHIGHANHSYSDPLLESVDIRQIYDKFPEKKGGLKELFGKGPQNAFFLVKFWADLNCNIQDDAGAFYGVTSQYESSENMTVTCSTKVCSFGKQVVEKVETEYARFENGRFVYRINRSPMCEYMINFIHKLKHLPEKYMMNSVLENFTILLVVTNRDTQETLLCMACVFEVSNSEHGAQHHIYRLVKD
recombinant TEAD2 protein (218-447, Uniprot ID: Q15562), sequence (Q15562 218-447): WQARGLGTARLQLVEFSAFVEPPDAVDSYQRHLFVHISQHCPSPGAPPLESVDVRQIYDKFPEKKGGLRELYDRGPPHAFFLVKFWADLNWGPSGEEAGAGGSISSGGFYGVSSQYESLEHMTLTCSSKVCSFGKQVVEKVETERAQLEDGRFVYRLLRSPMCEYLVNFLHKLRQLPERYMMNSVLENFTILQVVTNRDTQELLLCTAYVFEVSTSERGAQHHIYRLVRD
recombinant TEAD3 protein central pocket, sequence (Q99594 whole entry): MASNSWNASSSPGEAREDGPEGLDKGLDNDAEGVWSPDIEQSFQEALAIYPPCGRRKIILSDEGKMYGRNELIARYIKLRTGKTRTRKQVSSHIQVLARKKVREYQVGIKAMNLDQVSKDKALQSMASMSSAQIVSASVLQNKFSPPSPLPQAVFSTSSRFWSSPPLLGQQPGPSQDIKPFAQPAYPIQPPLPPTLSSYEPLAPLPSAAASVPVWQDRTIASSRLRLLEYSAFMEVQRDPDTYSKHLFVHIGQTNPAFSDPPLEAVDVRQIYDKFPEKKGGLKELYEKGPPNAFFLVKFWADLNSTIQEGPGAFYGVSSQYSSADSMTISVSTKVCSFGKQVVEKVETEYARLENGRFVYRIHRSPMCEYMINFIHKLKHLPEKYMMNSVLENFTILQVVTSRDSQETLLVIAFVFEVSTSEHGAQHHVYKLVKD
recombinant TEAD3 protein (218-435, Uniprot ID: Q99594), sequence (Q99594 218-435): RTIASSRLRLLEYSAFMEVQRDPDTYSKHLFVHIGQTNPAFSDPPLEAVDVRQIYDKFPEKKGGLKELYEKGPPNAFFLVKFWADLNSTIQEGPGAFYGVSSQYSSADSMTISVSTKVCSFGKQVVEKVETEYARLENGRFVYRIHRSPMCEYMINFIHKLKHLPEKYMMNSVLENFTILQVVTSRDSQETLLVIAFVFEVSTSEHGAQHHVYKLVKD

Consider `CNS(=O)(=O)c1ccc(Nc2ccc(C(F)(F)F)cc2)c(-c2cn(C)cn2)c1` [VT103, reference compound], for which the IC50 in data set [1] worked out at 2.7 µM; in [3] it was 1.2 µM; in data set [4], 2.5 µM; in data set [5], 0.88 µM. For the same compound, the concentration at 24 h was 828 nM in data set [2] (oral, IG 7 mg/kg, converted from ng/ml, read-out: blood concentration after 24 hours) and 340 ng/mL in data set [2] (7 mg/kg oral/IG, read-out: plasma drug concentration after 24 hours C24h). In data set [2] (po, 7 mg/kg), this compound gave a bioavailability of 75%. In data set [2] (IV), this compound had a clearance of 4.7 mL/min/kg. In data set [2] (IV), this compound gave a half-life of 13.2 h. Moreover, in data set [2] (IV, read-out: VSS), the Vd stood at 4.5 L/kg. In data set [2] (per oral (PO) 7 mg/kg, read-out: Cmax), the Cmax stood at 896 ng/mL.
As to `CCP(=O)(CC)c1ccc(Nc2ccc(C(F)(F)F)cc2)c(-c2cn(C)cn2)c1` [Compound 76], the IC50 is 0.71 µM in data set [1], 0.34 µM in data set [3], 0.22 µM in data set [4] and 0.53 µM in [5]. Moreover, in the data set on TEAD family proteins, the “binding ability to each subtype of TEAD family proteins” value is listed as “good binding abilities”. Also, the “Δ T m (TEAD4)” value in data set [6] is given as “++++”. Besides, the “Δ T m (TEAD3)” value in data set [7] is reported as “+++”. Also, the “Δ T m (TEAD2)” value in data set [8] is listed as “++++”. In data set [9], the “Δ T m (TEAD1)” value is listed as “++++”.
For `O=P1(c2ccc(Nc3ccc(C(F)(F)F)cc3)c(-c3ncccn3)c2)CC(CO)C1` (stereo not shown) [Compound 21], the “binding ability to each subtype of TEAD family proteins” value with TEAD family proteins is “good binding abilities”. Moreover, the “Δ T m (TEAD4)” value in [6] is on record as “++++”. Besides, in [7], the “Δ T m (TEAD3)” value was “+++”. The IC50 was determined as 0.2 µM in data set [3], 0.11 µM in data set [4] and 0.31 µM in data set [5]. In addition, in data set [8], the “Δ T m (TEAD2)” value is “++++”. In [9], the “Δ T m (TEAD1)” value is reported as “++++”.
